Target: T1, 5-lipoxygenase (5-LO) (Homo sapiens, UniProt P09917)
T1 sequence (P09917 1-674): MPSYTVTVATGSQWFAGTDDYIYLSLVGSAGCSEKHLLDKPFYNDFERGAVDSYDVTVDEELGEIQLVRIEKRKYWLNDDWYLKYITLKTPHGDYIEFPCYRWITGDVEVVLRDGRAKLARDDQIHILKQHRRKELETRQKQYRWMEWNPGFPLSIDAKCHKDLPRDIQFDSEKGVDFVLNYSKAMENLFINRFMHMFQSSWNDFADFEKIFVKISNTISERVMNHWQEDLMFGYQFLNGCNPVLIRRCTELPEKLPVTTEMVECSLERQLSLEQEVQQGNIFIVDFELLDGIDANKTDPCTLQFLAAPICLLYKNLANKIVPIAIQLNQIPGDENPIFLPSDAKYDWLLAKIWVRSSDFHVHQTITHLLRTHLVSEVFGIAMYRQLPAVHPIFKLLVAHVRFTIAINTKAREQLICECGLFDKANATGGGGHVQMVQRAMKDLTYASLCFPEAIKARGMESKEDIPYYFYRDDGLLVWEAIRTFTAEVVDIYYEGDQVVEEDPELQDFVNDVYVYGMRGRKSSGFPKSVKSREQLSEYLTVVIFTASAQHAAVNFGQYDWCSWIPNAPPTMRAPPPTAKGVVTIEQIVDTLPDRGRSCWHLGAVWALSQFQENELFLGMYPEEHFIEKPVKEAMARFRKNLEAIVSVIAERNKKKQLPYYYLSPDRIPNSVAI
Assay: cell-free 5-LO activity assay with arachidonic acid, products by HPLC
Format: biochemical

IC50: 7.8 to 10 µM
SMILES: O=C1Nc2ccccc2/C1=C1/Nc2ccccc2/C1=N\O [I3MO, Indirubin-3′-monoxime]

— publication PMC3928003 (Cardiovascular Research, 2013)
